Assay results from US7615523B2, “Lens care product containing dexpanthenol” (Novartis AG, priority 2006, dated 2009).

Experiments:
[1] = antimicrobial (microbiological) efficacy of contact lens care solutions; details: addition of sorbit to contact lens care compositions
[2] = cytotoxicity studies on addition of dexpanthenol and D-sorbit; assay type: cell-based; details: addition of sorbit to compositions containing antimicrobial compounds, e.g. PHMB
[3] = stabilisation of the lachrymal film when inserting contact lenses; details: when/after inserting the contact lenses
Text: Dexpanthenol, an alcohol of pantothenic acid, also called Provitamin B5, D-pantothenyl alcohol or D-panthenol, has been used for a long time for healing wounds or in the field of medicinal skin care. […] Vortex motion of the lachrymal liquid can occur through the insertion of contact lenses, namely because of mechanical eruption or through surface-active substances optionally present in the contact lens solution and can lead to severe loss of the aqueous lachrymal layer. […] This guards against the appearance of dryness, which can lead to a reduced lachrymal film.
The addition of D-sorbit to adjust the tonicity of contact lens care products is known. GB 2,205,175 and U.S. Pat. No. 3,888,782 describe sorbit as a carrier material for the preparation of powder mixtures for contact lens care products. […] This guards against the appearance of dryness, which can lead to a reduced lachrymal film. […] Negative effects caused by surface-active substances and preservatives are reduced and the contact lenses are prevented from drying out.

SMILES	effect on microbiological efficacy of antimicrobial compounds present, e.g. PHMB [1]	toxicity [2]	lachrymal film stabilisation [3]
OC[C@@H](O)[C@@H](O)[C@H](O)[C@@H](O)CO [sorbit, D-sorbit]	substantially increases the microbiological efficacy	without resulting in negative effects as regards toxicity	–
CC(C)(CO)[C@@H](O)C(=O)NCCCO [dexpanthenol]	–	–	stabilises the lachrymal film
